Several values for one entry are separate records, joined by “and”; a condition that tells them apart may be missing. Equal values may be shown once. Read-outs that look alike come from different tables or passages of the source.
Assays:
SERT = experiment: Baboon PET imaging: brain uptake, kinetic analysis and SERT parameters; type: in vivo; conditions: for Kp: male, baboon, brain, intravenous
How it was run: (§1)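 Two isoflurane-anaesthetised adult male baboons, each radioligand tested twice (test-retest); i.v. bolus, 91 min 3D emission scan with arterial sampling, MRI-defined regions. Brain uptake as % ID g^−1, with peak time and washout; VT from one-tissue compartment model (K1/k2) using arterial plasma input.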

[1] = as above; type: in vivo; conditions: male, baboon, intravenous, baboons
How it was run: as §1

[2] = BP = VT ROI − VT CER, baboons, mean ± SD of four experiments
[3] = Mean ± SD of four experiments in two baboons
[4] = baboon A, experiments of FIGS. 5-9 (FIG. 10)
[5] = baboons, mean ± SD of four experiments
[6] = last scan 90 minutes, baboons, mean ± SD of four experiments
[7] = one-tissue compartment model, baboons, mean ± SD of four experiments

SMILES: CN(C)Cc1ccccc1Sc1ccc(I)cc1N [[^11C]ADAM]
- Binding potential Cingulate Cortex (SERT; [2]): 8.8 ± 3.9 mL/g
- Binding potential Hippocampus (SERT; [2]): 12.6 ± 3.3 mL/g
- Binding potential Midbrain (SERT; [2]): 28.5 ± 6.7 mL/g
- Binding potential Occipital Cortex (SERT; [2]): 4.9 ± 3.8 mL/g
- Binding potential Striatum (SERT; [2]): 17.8 ± 3.7 mL/g
- Binding potential Temporal Cortex (SERT; [2]): 10.1 ± 5.0 mL/g
- Binding potential Thalamus (SERT; [2]): 31.4 ± 6.1 mL/g
- Equilibrium specific to non-specific partition coefficient (V3″) Cingulate Cortex (SERT; Baboon A, single experiment): 0.28 and 0.43
- Equilibrium specific to non-specific partition coefficient (V3″) Hippocampus (SERT; Baboon A, single experiment): 0.41 and 0.49
- Equilibrium specific to non-specific partition coefficient (V3″) Midbrain (SERT; Baboon A, single experiment): 1.04 and 0.81
- Equilibrium specific to non-specific partition coefficient (V3″) Striatum (SERT; Baboon A, single experiment): 0.65 and 0.59
- Equilibrium specific to non-specific partition coefficient (V3″) Temporal Cortex (SERT; Baboon A, single experiment): 0.41 and 0.47
- Equilibrium specific to non-specific partition coefficient (V3″) Thalamus (SERT; Baboon A, single experiment): 1.18 and 0.92
- Equilibrium specific to non-specific partition coefficient (V3″) Cingulate Cortex (SERT; Baboon B, single experiment): 0.23 and 0.26
- Equilibrium specific to non-specific partition coefficient (V3″) Hippocampus (SERT; Baboon B, single experiment): 0.38 and 0.47
- Equilibrium specific to non-specific partition coefficient (V3″) Midbrain (SERT; Baboon B, single experiment): 0.91 and 1.25
- Equilibrium specific to non-specific partition coefficient (V3″) Occipital Cortex (SERT; Baboon B, single experiment): 0.07 and 0.12
- Equilibrium specific to non-specific partition coefficient (V3″) Striatum (SERT; Baboon B, single experiment): 0.56 and 0.68
- Equilibrium specific to non-specific partition coefficient (V3″) Temporal Cortex (SERT; Baboon B, single experiment): 0.18 and 0.30
- Equilibrium specific to non-specific partition coefficient (V3″) Thalamus (SERT; Baboon B, single experiment): 1.05 and 1.26
- Equilibrium specific to non-specific partition coefficient (V3″) Cingulate Cortex (SERT; [3]): 0.30 ± 0.09
- Equilibrium specific to non-specific partition coefficient (V3″) Hippocampus (SERT; [3]): 0.44 ± 0.05
- Equilibrium specific to non-specific partition coefficient (V3″) Midbrain (SERT; [3]): 1.00 ± 0.19
- Equilibrium specific to non-specific partition coefficient (V3″) Occipital Cortex (SERT; [3]): 0.16 ± 0.11
- Equilibrium specific to non-specific partition coefficient (V3″) Striatum (SERT; [3]): 0.62 ± 0.06
- Equilibrium specific to non-specific partition coefficient (V3″) Temporal Cortex (SERT; [3]): 0.34 ± 0.13
- Equilibrium specific to non-specific partition coefficient (V3″) Thalamus (SERT; [3]): 1.10 ± 0.15
- Thalamus to cerebellum ratio equal to true equilibrium ratio (V3″+1) (SERT; [4]): 1.92
- Time at which measured thalamus to cerebellum ratio equals the true equilibrium ratio (estimate of peak specific binding) (SERT; [4]): 55 min
- K1, average of all regions and all animals (SERT; baboons): 1.09 ± 0.35 mL/g/min
- k2, average of all regions and all animals (SERT; baboons): 0.028 ± 0.011 min⁻¹
- V3″ expressed in percentage of [^11C]McN 5652 V3″ (SERT; baboons, combining all regions): 128±24%
- Mean regional peak uptake time (SERT; baboons, mean of all regions): 37 ± 18 min
- Mean regional wash-out (% decrease between peak time and last scan) (SERT; baboons, mean of all regions): 25±14%
- Cingulate Cortex to cerebellum activity ratio at 90 minutes (SERT; [5]): 1.29 ± 0.07
- Hippocampus to cerebellum activity ratio at 90 minutes (SERT; [5]): 1.45 ± 0.06
- Midbrain to cerebellum activity ratio at 90 minutes (SERT; [5]): 1.96 ± 0.18
- Occipital Cortex to cerebellum activity ratio at 90 minutes (SERT; [5]): 1.14 ± 0.09
- Regional uptake peak time Cerebellum (SERT; [5]): 14 ± 5 min
- Regional uptake peak time Cingulate Cortex (SERT; [5]): 32 ± 17 min
- Regional uptake peak time Hippocampus (SERT; [5]): 46 ± 8 min
- Regional uptake peak time Midbrain (SERT; [5]): 49 ± 22 min
- Regional uptake peak time Occipital Cortex (SERT; [5]): 30 ± 18 min
- Regional uptake peak time Striatum (SERT; [5]): 39 ± 15 min
- Regional uptake peak time Temporal Cortex (SERT; [5]): 39 ± 13 min
- Regional uptake peak time Thalamus (SERT; [5]): 51 ± 24 min
- Striatum to cerebellum activity ratio at 90 minutes (SERT; [5]): 1.65 ± 0.13
- Temporal Cortex to cerebellum activity ratio at 90 minutes (SERT; [5]): 1.33 ± 0.08
- Thalamus to cerebellum activity ratio at 90 minutes (SERT; [5]): 2.05 ± 0.23
- Total brain uptake at 45 min (SERT; baboons, region encompassing the entire brain): 0.017±0.001 % ID g^−1
- Regional activity wash-out: % decrease from peak to last scan, Cerebellum (SERT; [6]): 45 ± 8%
- Regional activity wash-out: % decrease from peak to last scan, Cingulate Cortex (SERT; [6]): 34 ± 7%
- Regional activity wash-out: % decrease from peak to last scan, Hippocampus (SERT; [6]): 15 ± 6%
- Regional activity wash-out: % decrease from peak to last scan, Midbrain (SERT; [6]): 10 ± 7%
- Regional activity wash-out: % decrease from peak to last scan, Occipital Cortex (SERT; [6]): 36 ± 10%
- Regional activity wash-out: % decrease from peak to last scan, Striatum (SERT; [6]): 23 ± 6%
- Regional activity wash-out: % decrease from peak to last scan, Temporal Cortex (SERT; [6]): 25 ± 8%
- Regional activity wash-out: % decrease from peak to last scan, Thalamus (SERT; [6]): 12 ± 5%
- Kp (SERT; cingulate cortex, one-tissue compartment model, baboons, mean ± SD of four experiments, read-out: VT Cingulate Cortex): 37.3 ± 8.5
- Kp (SERT; hippocampus, one-tissue compartment model, baboons, mean ± SD of four experiments, read-out: VT Hippocampus): 41.1 ± 8
- Kp (SERT; midbrain, one-tissue compartment model, baboons, mean ± SD of four experiments, read-out: VT Midbrain): 57 ± 10.2
- Kp (SERT; occipital cortex, one-tissue compartment model, baboons, mean ± SD of four experiments, read-out: VT Occipital Cortex): 33.5 ± 8.3
- Kp (SERT; striatum, one-tissue compartment model, baboons, mean ± SD of four experiments, read-out: VT Striatum): 46.3 ± 8.4
- Kp (SERT; temporal cortex, one-tissue compartment model, baboons, mean ± SD of four experiments, read-out: VT Temporal Cortex): 38.6 ± 9.7
- Kp (SERT; thalamus, one-tissue compartment model, baboons, mean ± SD of four experiments, read-out: VT Thalamus): 59.9 ± 10.1
- K1 Cerebellum (SERT; [7]): 1.23 ± 0.44 mL/g/min
- K1 Cingulate Cortex (SERT; [7]): 1.20 ± 0.38 mL/g/min
- K1 Hippocampus (SERT; [7]): 0.85 ± 0.32 mL/g/min
- K1 Midbrain (SERT; [7]): 1.00 ± 0.35 mL/g/min
- K1 Occipital Cortex (SERT; [7]): 1.12 ± 0.33 mL/g/min
- K1 Striatum (SERT; [7]): 1.15 ± 0.45 mL/g/min
- K1 Temporal Cortex (SERT; [7]): 1.02 ± 0.37 mL/g/min
- K1 Thalamus (SERT; [7]): 1.14 ± 0.32 mL/g/min
- K2 Cerebellum (SERT; [7]): 0.043 ± 0.012 min⁻¹
- K2 Cingulate Cortex (SERT; [7]): 0.033 ± 0.009 min⁻¹
- K2 Hippocampus (SERT; [7]): 0.021 ± 0.006 min⁻¹
- K2 Midbrain (SERT; [7]): 0.018 ± 0.006 min⁻¹
- K2 Occipital Cortex (SERT; [7]): 0.034 ± 0.010 min⁻¹
- K2 Striatum (SERT; [7]): 0.025 ± 0.008 min⁻¹
- K2 Temporal Cortex (SERT; [7]): 0.027 ± 0.009 min⁻¹
- K2 Thalamus (SERT; [7]): 0.020 ± 0.006 min⁻¹
- VT Cerebellum (VT CER, nonspecific distribution volume) (SERT; [7]): 28.5 ± 4.8 mL/g
- Kp ([1]; brain regions (average of all regions), read-out: VT, average of all regions and all animals): 42.8 ± 12.9
- Kp ([1]; cerebellum, one-tissue compartment model, mean ± SD of four experiments, read-out: VT Cerebellum (VT CER, nonspecific distribution volume)): 28.5 ± 4.8

Source: patent US20110097274A1, “Carbon-11 and fluorine-18 labeled radioligands for positron emission tomography (PET) imaging for the brain serotonin transporters” (priority 2002, published 2011)
